Experimental data taken from PubChem BioAssay AID330 (DTP/NCI, 2004).
Values joined by “and” are separate entries in the source; they are usually repeats but may differ in a detail not shown here. Equal values may be shown once. Toxic doses and inconclusive results are not listed.

Test system: P388 leukemia ip, CD2F1 mice, survival T/C
Assay: NCI In Vivo Anticancer Drug Screen. Data for tumor model P388 Leukemia (intraperitoneal) in CD2F1 (CDF1) mice
Conditions: endpoint: median survival time, higher = longer survival
Summary of the method: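 Mice carrying the transplanted tumor received test compound or vehicle. Survival was recorded in each group, and the value is the treated-group measurement divided by that of the vehicle-treated control group.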

[1] = dose: 50.0 mg/kg/injection, schedule: Q01DX009 (ip), vehicle: Klucel (hydroxypropylcellulose) (HPC)
[2] = dose: 100.0 mg/kg/injection, schedule: Q01DX009 (ip), vehicle: Klucel (hydroxypropylcellulose) (HPC)
[3] = dose: 200.0 mg/kg/injection, schedule: Q01DX009 (ip), vehicle: Klucel (hydroxypropylcellulose) (HPC)
[4] = dose: 50.0 mg/kg/injection, schedule: Q01DX009 (ip), vehicle: saline with Tween-80
[5] = dose: 100.0 mg/kg/injection, schedule: Q01DX009 (ip), vehicle: saline with Tween-80
[6] = dose: 50.0 mg/kg/injection, schedule: Q01DX005 (ip), vehicle: saline with Tween-80
[7] = dose: 100.0 mg/kg/injection, schedule: Q01DX005 (ip), vehicle: saline with Tween-80
[8] = dose: 200.0 mg/kg/injection, schedule: Q01DX005 (ip), vehicle: saline with Tween-80
[9] = dose: 400.0 mg/kg/injection, schedule: Q01DX009 (ip), vehicle: Klucel (hydroxypropylcellulose) (HPC)
[10] = dose: 25.0 mg/kg/injection, schedule: Q04DX003 (ip), vehicle: saline with Tween-80
[11] = dose: 50.0 mg/kg/injection, schedule: Q04DX003 (ip), vehicle: saline with Tween-80
[12] = dose: 100.0 mg/kg/injection, schedule: Q04DX003 (ip), vehicle: saline with Tween-80
[13] = dose: 200.0 mg/kg/injection, schedule: Q04DX003 (ip), vehicle: saline with Tween-80
[14] = dose: 100.0 mg/kg/injection, schedule: Q01DX001 (ip), vehicle: Klucel (hydroxypropylcellulose) (HPC)
[15] = dose: 200.0 mg/kg/injection, schedule: Q01DX001 (ip), vehicle: Klucel (hydroxypropylcellulose) (HPC)
[16] = dose: 50.0 mg/kg/injection, schedule: Q01DX009 (ip), vehicle: saline
[17] = dose: 60.0 mg/kg/injection, schedule: Q01DX005 (ip), vehicle: saline with Tween-80
[18] = dose: 120.0 mg/kg/injection, schedule: Q01DX005 (ip), vehicle: saline with Tween-80
[19] = dose: 240.0 mg/kg/injection, schedule: Q01DX005 (ip), vehicle: saline with Tween-80
[20] = dose: 25.0 mg/kg/injection, schedule: Q01DX009 (ip), vehicle: saline with Tween-80

For `CC(C)(C)c1cc(C(c2ccccc2)(c2ccccc2)c2ccccc2)cc2c1[O][Sb]([c]1ccccc1)([c]1ccccc1)([c]1ccccc1)[NH]2`, the T/C [1] was 102 % of control, the T/C [2] was 103 % of control and the T/C [3] was 116 % of control.

For `C(=C\c1cc2ccc(C3=NCCN3)cc2[nH]1)/c1ccc(Oc2ccc(C3=NCCN3)cc2)cc1`, the T/C (dose: 3.12 mg/kg/injection, schedule: Q04DX003 (ip), vehicle: saline) was 108 % of control, the T/C (dose: 6.25 mg/kg/injection, schedule: Q04DX003 (ip), vehicle: saline) was 103 % of control and the T/C (dose: 12.5 mg/kg/injection, schedule: Q04DX003 (ip), vehicle: saline) was 111 % of control. For the same compound, the T/C (dose: 25.0 mg/kg/injection, schedule: Q04DX003 (ip), vehicle: saline) was 120 % of control.

In the case of `CCCCCCOCC(=O)OC`, the T/C [4] is reported as 103 % of control, the T/C [5] is reported as 102 % of control and the T/C (dose: 200.0 mg/kg/injection, schedule: Q01DX009 (ip), vehicle: saline with Tween-80) is reported as 102 % of control.

With `CCC1(CC)OC(=O)C1Cl` (centres undefined) the T/C [6] was 98 % of control, the T/C [7] was 113 % of control and the T/C [8] was 118 % of control.

With `CCCCCCCCCCCC(=O)N(CCOC(=O)C(C)(C)C)CCOC(=O)C(C)(C)C` the T/C (dose: 25.0 mg/kg/injection, schedule: Q01DX009 (ip), vehicle: Klucel (hydroxypropylcellulose) (HPC)) was 97 % of control, the T/C [1] was 104 % of control and 113 % of control and 94 % of control and the T/C [2] was 100 % of control (2×) and 111 % of control. The T/C [3] was 99 % of control and 120 % of control and the T/C [9] was 108 % of control.

In the case of `CCOC(=O)N1CCc2[nH]oc(=O)c2CC1`, the T/C (dose: 6.25 mg/kg/injection, schedule: Q01DX009 (ip), vehicle: saline) is reported as 101 % of control and 107 % of control, the T/C (dose: 12.5 mg/kg/injection, schedule: Q01DX009 (ip), vehicle: saline) is reported as 110 % of control and 95 % of control and the T/C (dose: 25.0 mg/kg/injection, schedule: Q01DX009 (ip), vehicle: saline) is reported as 99 % of control.

For `COc1cc2c(cc1OC)C(Cc1ccccc1[N+](=O)[O-])=NCC2`, the T/C [10] was 99 % of control, the T/C [11] was 100 % of control and the T/C [12] was 114 % of control. For the same compound, the T/C [13] was 100 % of control.

In the case of `Cc1cc(=O)n(C)c2ccc([N+](=O)[O-])cc12`, the T/C [1] is reported as 106 % of control, the T/C [2] is reported as 108 % of control and the T/C [3] is reported as 108 % of control.

`O=[N+]([O-])C(CO)CCC(CO)[N+](=O)[O-]` (centres undefined) was tested, and the T/C (dose: 100.0 mg/kg/injection, schedule: Q04DX003 (ip), vehicle: Klucel (hydroxypropylcellulose) (HPC)) was 96 % of control, the T/C (dose: 200.0 mg/kg/injection, schedule: Q04DX003 (ip), vehicle: Klucel (hydroxypropylcellulose) (HPC)) was 98 % of control and the T/C (dose: 400.0 mg/kg/injection, schedule: Q04DX003 (ip), vehicle: Klucel (hydroxypropylcellulose) (HPC)) was 88 % of control.

`C=C1C(=O)OCC1C(=O)O` (centres undefined) was tested, and the T/C (dose: 8.0 mg/kg/injection, schedule: Q01DX009 (ip), vehicle: saline) was 121 % of control, the T/C (dose: 16.0 mg/kg/injection, schedule: Q01DX009 (ip), vehicle: saline) was 114 % of control and the T/C (dose: 64.0 mg/kg/injection, schedule: Q01DX009 (ip), vehicle: saline) was 103 % of control.

With `CCN(CC)C/C(C)=C(/c1ccccc1)c1ccccc1S(N)(=O)=O` the T/C [14] was 116 % of control and the T/C [15] was 111 % of control.

For `COc1cc(O)ccc1C(=S)SC`, the T/C [12] was 106 % of control and the T/C [13] was 99 % of control.

With `CC1(C)CC(C)(OC(=O)c2ccc([N+](=O)[O-])cc2)[N+]([O-])=N1` (centres undefined) the T/C (dose: 12.5 mg/kg/injection, schedule: Q01DX009 (ip), vehicle: other) was 96 % of control, the T/C (dose: 25.0 mg/kg/injection, schedule: Q01DX009 (ip), vehicle: other) was 100 % of control and the T/C (dose: 50.0 mg/kg/injection, schedule: Q01DX009 (ip), vehicle: other) was 95 % of control. For the same compound, the T/C (dose: 100.0 mg/kg/injection, schedule: Q01DX009 (ip), vehicle: other) was 94 % of control and the T/C (dose: 200.0 mg/kg/injection, schedule: Q01DX009 (ip), vehicle: other) was 88 % of control.

In the case of `[Ni+2].[O-]/C(=N\N=C/c1ccco1)c1ccccc1O.[O-]/C(=N\N=C/c1ccco1)c1ccccc1O`, the T/C (dose: 50.0 mg/kg/injection, schedule: Q04DX002 (ip), vehicle: saline with Tween-80) is reported as 86 % of control, the T/C (dose: 100.0 mg/kg/injection, schedule: Q04DX002 (ip), vehicle: saline with Tween-80) is reported as 93 % of control and the T/C (dose: 200.0 mg/kg/injection, schedule: Q04DX002 (ip), vehicle: saline with Tween-80) is reported as 93 % of control.

`Cc1c(N)c(=O)oc2cc3occc(=O)c3cc12` was tested, and the T/C (dose: 100.0 mg/kg/injection, schedule: Q01DX001 (ip), vehicle: saline with Tween-80) was 91 % of control, the T/C (dose: 200.0 mg/kg/injection, schedule: Q01DX001 (ip), vehicle: saline with Tween-80) was 89 % of control and the T/C (dose: 400.0 mg/kg/injection, schedule: Q01DX001 (ip), vehicle: saline with Tween-80) was 92 % of control.

In the case of `COCCC(=NC(C)(C)C)Nc1c(Cl)cccc1Cl`, the T/C [16] is reported as 110 % of control and the T/C (dose: 100.0 mg/kg/injection, schedule: Q01DX009 (ip), vehicle: saline) is reported as 108 % of control.

`Oc1cccc2c1[O][Sb][O]2` was tested, and the T/C (dose: 4.0 mg/kg/injection, schedule: Q01DX009 (ip), vehicle: Klucel (hydroxypropylcellulose) (HPC)) was 120 % of control, the T/C (dose: 4.0 mg/kg/injection, schedule: Q03HX016 (ip), vehicle: Klucel (hydroxypropylcellulose) (HPC)) was 101 % of control and the T/C (dose: 4.0 mg/kg/injection, schedule: Q03HX024 (ip), vehicle: Klucel (hydroxypropylcellulose) (HPC)) was 103 % of control. For the same compound, the T/C (dose: 8.0 mg/kg/injection, schedule: Q03HX024 (ip), vehicle: Klucel (hydroxypropylcellulose) (HPC)) was 116 % of control, the T/C [16] was 166 % of control and the T/C (dose: 64.0 mg/kg/injection, schedule: Q01DX001 (ip), vehicle: Klucel (hydroxypropylcellulose) (HPC)) was 122 % of control. For the same compound, the T/C (dose: 128.0 mg/kg/injection, schedule: Q01DX001 (ip), vehicle: Klucel (hydroxypropylcellulose) (HPC)) was 115 % of control.

In the case of `OCc1c(CO)c2cccn2c2c1cnn2-c1ccccc1`, the T/C [17] is reported as 100 % of control, the T/C [18] is reported as 90 % of control and the T/C [19] is reported as 89 % of control.

With `NC(CCCCC(N)C(=O)c1ccccc1)C(=O)c1ccccc1` (centres undefined) the T/C [17] was 98 % of control, the T/C [18] was 93 % of control and the T/C [19] was 94 % of control.

With `c1ccc(CNc2ccnc3c2ccc2ccccc23)cc1` the T/C [14] was 100 % of control, the T/C [15] was 97 % of control and the T/C (dose: 400.0 mg/kg/injection, schedule: Q01DX001 (ip), vehicle: Klucel (hydroxypropylcellulose) (HPC)) was 100 % of control.

For `COc1ccc(C(C)(C)CC(C)(C)C)cc1`, the T/C (dose: 12.5 mg/kg/injection, schedule: Q01DX009 (ip), vehicle: saline with Tween-80) was 101 % of control, the T/C [20] was 104 % of control and the T/C [4] was 104 % of control. For the same compound, the T/C [5] was 109 % of control.

For `Cc1ccccc1S(=O)(=O)F`, the T/C [20] was 100 % of control, the T/C [10] was 100 % of control and the T/C [4] was 100 % of control. The T/C [11] was 100 % of control, the T/C [5] was 109 % of control and the T/C [12] was 100 % of control.

With `COc1cc2c(cc1O)NC(OC)C1CC(O)CN1C2=O` (centres undefined) the T/C (dose: 1.0 mg/kg/injection, schedule: Q01DX005 (ip), vehicle: saline with Tween-80) was 121 % of control, the T/C (dose: 2.0 mg/kg/injection, schedule: Q01DX005 (ip), vehicle: saline with Tween-80) was 119 % of control and the T/C (dose: 16.0 mg/kg/injection, schedule: Q01DX005 (ip), vehicle: saline with Tween-80) was 161 % of control.

For `O=[N+]([O-])c1cc(Cl)ccc1-c1ccccc1`, the T/C [2] was 87 % of control, the T/C [3] was 93 % of control and the T/C [9] was 101 % of control.

With `NC(CCCCNC(=O)c1ccccc1)C(=O)O` (centres undefined) the T/C [6] was 101 % of control, the T/C [7] was 93 % of control and the T/C [8] was 99 % of control.

With `O=C(N/N=C/c1cccc(O)c1)C(=O)N/N=C/c1cccc(O)c1` the T/C (dose: 50.0 mg/kg/injection, schedule: Q01DX009 (ip), vehicle: water) was 101 % of control, the T/C (dose: 100.0 mg/kg/injection, schedule: Q01DX009 (ip), vehicle: water) was 100 % of control and the T/C (dose: 200.0 mg/kg/injection, schedule: Q01DX009 (ip), vehicle: water) was 102 % of control.
